Reference: patent US9586928B2 (The Scripps Research Institute, priority 2011, dated 2017)

Legend:
VP16 = test: Gal4 DBD-VP16 / UAS luciferase control assay; format: cell-based; conditions: 10 μM
Description: (§1) The cells were treated with either DMSO or various compounds as indicated four hours after replating. Following additional 20 hour incubation, luciferase levels were assayed by one-step addition of 20 μL BriteLite (Perkin Elmer) and read using an Envision multilabel plate reader (Perkin Elmer).

RORγ = target: T1, RORγ (Homo sapiens, UniProt P51449); test: Gal4-RORγ LBD / UAS luciferase cotransfection assay; format: cell-based; conditions: 10 μM
T1 construct: expressed in transfected cells; host or cells: HEK293T
T1 sequence (P51449 269-508 limits assumed): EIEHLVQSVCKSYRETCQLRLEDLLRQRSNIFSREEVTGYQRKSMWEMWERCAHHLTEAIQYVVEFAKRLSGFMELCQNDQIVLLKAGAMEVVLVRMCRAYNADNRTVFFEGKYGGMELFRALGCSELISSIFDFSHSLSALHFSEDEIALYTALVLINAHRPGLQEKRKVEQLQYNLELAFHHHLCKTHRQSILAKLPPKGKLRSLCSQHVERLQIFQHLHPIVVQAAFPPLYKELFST
Description: as §1
Cotransfection assays were performed as previously described in HEK293 cells (Gal4 cotransfection assay or IL-17 luciferase reporter)[8]. HEK293 and the mouse lymphoma EL4 (ATCC) cells were maintained in DMEM supplemented with 10% FBS plus antibiotics (penicillin and streptomycin; Invitrogen).

GST-RORγ = target: T2, GST-RORγ (Homo sapiens, UniProt P51449); test: RORγ scintillation proximity (SPA) radioligand binding assay, displacement of [3H]-T0901317; conditions: read-out: RORγ SPA % bound = % radiolabel bound; for remaining activity at 1 µM: 1 μM compound (Table 2D); for remaining activity at 10 µM: 10 μM compound
T2 construct: 1 μg of GST-RORγ-LBD, 5 nM of [3H]T1317 as radioligand
T2 sequence (P51449 269-508 limits assumed): T1 sequence (P51449 269-508 limits assumed)

In the case of `O=S(=O)(c1cccs1)N1CCN(Cc2ccc(-c3ccc(C(O)(C(F)(F)F)C(F)(F)F)cc3)cc2)CC1` [Example 145, 1,1,1,3,3,3-Hexafluoro-2-(4′-((4-(thiophen-2-ylsulfonyl)piperazin-1-yl)methyl)-[1,1′-biphenyl]-4-yl)propan-2-ol], the “VP16 repression, fold change over DMSO” value (VP16) is reported as 3.0 fold change over DMSO and the “RORγ repression, fold change over DMSO” value (RORγ) is reported as 3.0 fold change over DMSO.

`CC(c1ccc(-c2ccc(C(O)(C(F)(F)F)C(F)(F)F)cc2)cc1)N1CCN(Cc2ccncc2)CC1` (centres unmarked) [Compound 140, 1,1,1,3,3,3-hexafluoro-2-(4′-(1-(4-(pyridin-4-ylmethyl)piperazin-1-yl)ethyl)-[1,1′-biphenyl]-4-yl)propan-2-ol] showed a remaining activity at 1 µM (GST-RORγ) of 74%.

`O=C1CN(Cc2ccc(-c3ccc(C(O)(C(F)(F)F)C(F)(F)F)cc3)cc2)CCN1Cc1ccncc1` [Compound 119] showed a remaining activity at 10 µM (GST-RORγ) of 15%.

In the case of `OC(c1ccc(-c2ccc(CN3CCN(Cc4ccncc4)CC3)cc2C(F)(F)F)cc1)(C(F)(F)F)C(F)(F)F` [Example 160, 1,1,1,33,33-hexafluoro-2-(4′-((4-(pyridin-4-ylmethyl)piperazin-1-yl)methyl)-2′-(trifluoromethyl)-[1,1′-biphenyl]-4-yl)propan-2-ol], the remaining activity at 1 µM (GST-RORγ) is reported as 77%.

`Cc1ccc([N+](=O)[O-])cc1S(=O)(=O)N1CCN(Cc2ccc(-c3ccc(C(O)(C(F)(F)F)C(F)(F)F)cc3)cc2)CC1` [Example 148, 1,1,1,3,33-Hexafluoro-2-(4′-((4-((2-methyl-5-nitrophenyl)sulfonyl)piperazin-1-yl)methyl)-[1,1′-biphenyl]-4-yl)propan-2-ol] was tested, and the “VP16 repression, fold change over DMSO” value (VP16) was 1.0 fold change over DMSO and the “RORγ repression, fold change over DMSO” value (RORγ) was 0.4 fold change over DMSO.

For `O=[N+]([O-])c1ccc(S(=O)(=O)N2CCN(Cc3ccc(-c4ccc(C(O)(C(F)(F)F)C(F)(F)F)cc4)cc3)CC2)cc1` [Example 149, 1,1,1,3,3,3-Hexafluoro-2-(4′-((4-((4-nitrophenyl)sulfonyl)piperazin-1-yl)methyl)-[1,1′-biphenyl]-4-yl)propan-2-ol], the “VP16 repression, fold change over DMSO” value (VP16) was 0.7 fold change over DMSO and the “RORγ repression, fold change over DMSO” value (RORγ) was 0.5 fold change over DMSO.

Compound `OC(c1ccc(-c2ccc(CCN3CCN(Cc4ccncc4)CC3)cc2)cc1)(C(F)(F)F)C(F)(F)F` [Example 144, 1,1,1,3,3,3-hexafluoro-2-(4′-(2-(4-(pyridin-4-ylmethyl)piperazin-1-yl)ethyl)-[1,1′-biphenyl]-4-yl)propan-2-ol] has a remaining activity at 1 µM (GST-RORγ) of 61%.

Work on `O=C(Nc1ccc(-c2ccc(C(O)(C(F)(F)F)C(F)(F)F)cc2)cc1)N1CCN(Cc2ccncc2)CC1` [Compound 136, N-(4′-(1,1,1,3,3,3-hexafluoro-2-hydroxypropan-2-yl)-[1,1′-biphenyl]-4-yl)-4-(pyridin-4-ylmethyl)piperazine-1-carboxamide] yielded a remaining activity at 1 µM (GST-RORγ) of 76%.

Work on `OC(c1ccc(-c2ccc(CN3CCN(Cc4ccc5cc[nH]c5c4)CC3)cc2)cc1)(C(F)(F)F)C(F)(F)F` [Example 154, 2-(4′-((4-((1H-indol-6-yl)methyl)piperazin-1-yl)methyl)-[1,1′-biphenyl]-4-yl)-1,1,1,3,3,3-hexafluoropropan-2-ol] yielded a remaining activity at 1 µM (GST-RORγ) of 90%.

In the case of `O=S(=O)(c1ccc(CBr)cc1)N1CCN(Cc2ccc(-c3ccc(C(O)(C(F)(F)F)C(F)(F)F)cc3)cc2)CC1` [Example 147, 2-(4′-((4-((4-(Bromomethyl)phenyl)sulfonyl)piperazin-1-yl)methyl)-[1,1′-biphenyl]-4-yl)-1,1,1,3,3,3-hexafluoropropan-2-ol], the “VP16 repression, fold change over DMSO” value (VP16) is reported as 0.5 fold change over DMSO and the “RORγ repression, fold change over DMSO” value (RORγ) is reported as 0.5 fold change over DMSO.

Work on `OC(c1ccc(-c2ccc(CN3CCN(Cc4c[nH]cn4)CC3)cc2)cc1)(C(F)(F)F)C(F)(F)F` [Compound 112, 2-(4′-((4-((1H-Imidazol-5-yl)methyl)piperazin-1-yl)methyl)-[1,1′-biphenyl]-4-yl)-1,1,1,3,3,3-hexafluoropropan-2-ol] yielded a remaining activity at 10 µM (GST-RORγ) of 48%.

For `CCCCC(c1ccc(-c2ccc(C(O)(C(F)(F)F)C(F)(F)F)cc2)cc1)N1CCN(Cc2ccncc2)CC1` (centres unmarked) [Example 142, 1,1,1,3,3,3-hexafluoro-2-(4′-(1-(4-(pyridin-4-ylmethyl)piperazin-1-yl)pentyl)-[1,1′-biphenyl]-4-yl)propan-2-ol], the remaining activity at 1 µM (GST-RORγ) was 73%.

With `COc1cc(-c2ccc(CN3CCN(Cc4ccncc4)CC3)cc2)ccc1C(O)(C(F)(F)F)C(F)(F)F` [Compound 106, 1,1,1,3,3,3-Hexafluoro-2-(3-methoxy-4′-((4-(pyridin-4-ylmethyl)piperazin-1-yl)methyl)-[1,1′-biphenyl]-4-yl)propan-2-ol] the remaining activity at 10 µM (GST-RORγ) was 40%.

`OC(c1ccc(-c2ccc(CN3CCN(Cc4ccc5nc[nH]c5c4)CC3)cc2)cc1)(C(F)(F)F)C(F)(F)F` [Example 155, 2-(4′-((4-((1H-benzo[d]imidazol-6-yl)methyl)piperazin-1-yl)methyl)-[1,1′-biphenyl]-4-yl)-1,1,1,3,3,3-hexafluoropropan-2-ol] was tested, and the remaining activity at 1 µM (GST-RORγ) was 100%.

Compound `O=C(Cc1ccc(-c2ccc(C(O)(C(F)(F)F)C(F)(F)F)cc2)cc1)N1CCN(Cc2ccncc2)CC1` [Compound 137, 2-(4′-(1,1,1,3,3,3-hexafluoro-2-hydroxypropan-2-yl)-[1,1′-biphenyl]-4-yl)-1-(4-(pyridin-4-ylmethyl)piperazin-1-yl)ethanone] has a remaining activity at 1 µM (GST-RORγ) of 81%.

With `O=S(=O)(c1ccc(-c2ccc(C(O)(C(F)(F)F)C(F)(F)F)cc2)cc1)N1CCN(Cc2ccncc2)CC1` [Compound 138, 1,1,1,3,3,3-hexafluoro-2-(4′-((4-(pyridin-4-ylmethyl)piperazin-1-yl)sulfonyl)-[1,1′-biphenyl]-4-yl)propan-2-ol] the remaining activity at 1 µM (GST-RORγ) was 68%.

Work on `CC(Cc1ccc(-c2ccc(C(O)(C(F)(F)F)C(F)(F)F)cc2)cc1)N1CCN(Cc2ccncc2)CC1` (centres unmarked) [Example 143, 1,1,1,3,3,3-hexafluoro-2-(4′-(2-(4-(pyridin-4-ylmethyl)piperazin-1-yl)propyl)-[1,1′-biphenyl]-4-yl)propan-2-ol] yielded a remaining activity at 1 µM (GST-RORγ) of 74%.

Work on `O=C1CN(Cc2ccncc2)CCN1Cc1ccc(-c2ccc(C(O)(C(F)(F)F)C(F)(F)F)cc2)cc1` [Compound 120] yielded a remaining activity at 10 µM (GST-RORγ) of 15%.

Compound `OC(c1ccc(-c2ccc(CC3CCN(Cc4ccncc4)CC3)cc2)cc1)(C(F)(F)F)C(F)(F)F` [Example 164, 1,1,1,3,3,3-hexafluoro-2-(4′-((1-(pyridin-4-ylmethyl)piperidin-4-yl)methyl)-[1,1′-biphenyl]-4-yl)propan-2-ol] has a remaining activity at 1 µM (GST-RORγ) of 10%.

With `CC1CN(Cc2ccncc2)CCN1Cc1ccc(-c2ccc(C(O)(C(F)(F)F)C(F)(F)F)cc2)cc1` (centres unmarked) [Compound 118] the remaining activity at 10 µM (GST-RORγ) was 20%.

Compound `OC(c1ccc(-c2ccc3c(c2)CCC3N2CCN(Cc3ccncc3)CC2)cc1)(C(F)(F)F)C(F)(F)F` (centres unmarked) [Compound 139, 1,1,1,3,3,3-hexafluoro-2-(4-(1-(4-(pyridin-4-ylmethyl)piperazin-1-yl)-2,3-dihydro-H I-inden-5-yl)phenyl)propan-2-ol] has a remaining activity at 1 µM (GST-RORγ) of 59%.

For `O=C(OCc1ccccc1)N1CCN(Cc2ccc(-c3ccc(C(O)(C(F)(F)F)C(F)(F)F)cc3)cc2)CC1` [Example 150, Benzyl 4-((4′-(1,1,1,3,3,3-hexafluoro-2-hydroxypropan-2-yl)-[1,1′-biphenyl]-4-yl)methyl)piperazine-1-carboxylate], the “VP16 repression, fold change over DMSO” value (VP16) was 0.9 fold change over DMSO and the “RORγ repression, fold change over DMSO” value (RORγ) was 0.5 fold change over DMSO.

`Cc1cc(-c2ccc(CN3CCN(Cc4ccncc4)CC3)cc2)ccc1C(O)(C(F)(F)F)C(F)(F)F` [Compound 107, 1,1,1,3,3,3-Hexafluoro-2-(3-methyl-4′-((4-(pyridin-4-ylmethyl)piperazin-1-yl)methyl)-[1,1′-biphenyl]-4-yl)propan-2-ol] was tested, and the remaining activity at 10 µM (GST-RORγ) was 100%.

In the case of `OC(c1ccc(-c2ccc3c(c2)CCN3C2CCN(Cc3ccncc3)CC2)cc1)(C(F)(F)F)C(F)(F)F` [Example 162, 1,1,1,3,3,3-hexafluoro-2-(4-(1-(1-(pyridin-4-ylmethyl)piperidin-4-yl)indolin-5-yl)phenyl)propan-2-ol], the remaining activity at 1 µM (GST-RORγ) is reported as 15%.

Work on `CC(C)Oc1cc(C(O)(C(F)(F)F)C(F)(F)F)ccc1-c1ccc(CN2CCN(Cc3ccncc3)CC2)cc1` [Example 156, 1,1,1,3,3,3-hexafluoro-2-(2-isopropoxy-4′-((4-(pyridin-4-ylmethyl)piperazin-1-yl)methyl)-[1,1′-biphenyl]-4-yl)propan-2-ol] yielded a remaining activity at 1 µM (GST-RORγ) of 75%.

Compound `CC(C)CCN1CCN(Cc2ccc(-c3ccc(C(O)(C(F)(F)F)C(F)(F)F)cc3)cc2)CC1` [Example 157, 1,1,1,3,3,3-hexafluoro-2-(4′-((4-isopentylpiperazin-1-yl)methyl)-[1,1′-biphenyl]-4-yl)propan-2-ol] has a remaining activity at 1 µM (GST-RORγ) of 20%.

In the case of `O=S(=O)(c1ccc(C(F)(F)F)cc1)N1CCN(Cc2ccc(-c3ccc(C(O)(C(F)(F)F)C(F)(F)F)cc3)cc2)CC1` [Example 146, 1,1,1,3,3,3-Hexafluoro-2-(4′-((4-((4-(trifluoromethyl)phenyl)sulfonyl)piperazin-1-yl)methyl)-[1,1′-biphenyl]-4-yl)propan-2-ol], the “VP16 repression, fold change over DMSO” value (VP16) is reported as 0.7 fold change over DMSO and the “RORγ repression, fold change over DMSO” value (RORγ) is reported as 0.9 fold change over DMSO.

For `O=C(Oc1ccc([N+](=O)[O-])cc1)N1CCN(Cc2ccc(-c3ccc(C(O)(C(F)(F)F)C(F)(F)F)cc3)cc2)CC1` [Example 151, 4-Nitrophenyl 4-((4′-(1,1,1,3,3,3-hexafluoro-2-hydroxypropan-2-yl)-[1,1′-biphenyl]-4-yl)methyl)piperazine-1-carboxylate], the “VP16 repression, fold change over DMSO” value (VP16) was 0.6 fold change over DMSO and the “RORγ repression, fold change over DMSO” value (RORγ) was 0.6 fold change over DMSO.
